Earlier results on two compounds are cited in patent US20180228757A1, “EDIBLE PARTICLES COMPRISING A POLYSACCHARIDE AND A LIPID” (PERORA GMBH, priority 2015, published 2018).

Each structure is given as a SMILES string.

The conditions of the data set: infusion into the duodenum by means of a feeding tube.

Regarding `CCCCCCCC/C=C\CCCCCCCC(=O)O` [oleic acid], the satiety signalling result is recorded as “strong satiety signalling”.
Regarding `CCCCCCCCCCCC(=O)O` [lauric acid], the satiety signalling entry was “strong satiety signalling”.
